Among the data in ChEMBL document CHEMBL3352739, “Comparative in vivo evaluation of polyalkoxy substituted 4H-chromenes and oxa-podophyllotoxins as microtubule destabilizing agents in the phenotypic sea urchin embryo assay” (2014) are EC and GI50 values, retold here.

Assay [1] concerns Paracentrotus lividus. The experiment in a line: Antimitotic microtubule destabilizing activity in Paracentrotus lividus L embryos assessed as induction of cleavage alteration.
A further assay deals with T47D. The experiment in a line: Growth inhibition of human T47D cells after 48 hrs by sulforhodamine B assay. The class given is functional. For orientation: Sulforhodamine B stains cellular protein and so reports cell mass.
In assay [2] the test system is Paracentrotus lividus. The experiment in a line: Antimitotic microtubule destabilizing activity in Paracentrotus lividus L embryos assessed as induction of embryo spinning.
The subject of another assay is ZR-75-1. The experiment in a line: Growth inhibition of human ZR-75-1 cells after 48 hrs by sulforhodamine B assay. In kind it is functional. As to conditions: ZR-75-1, 48 h.
Assay [3] is described as follows: Growth inhibition of human H1299 cells after 48 hrs by sulforhodamine B assay. In kind it is functional. As to conditions: NCI-H1299, 48 h.
The test system of assay [4] is Paracentrotus lividus. The experiment in a line: Antimitotic microtubule destabilizing activity in Paracentrotus lividus L embryos assessed as induction of cleavage arrest.

The GI50 is the concentration that inhibits growth by half. Low values mean greater sensitivity of the cells, high ones lower sensitivity of the cells. `COc1cc(OC)cc(C2C(C#N)=C(N)Oc3cc(OC)ccc32)c1` (stereo unspecified): the EC worked out at 0.0005 µM in the assay on Paracentrotus lividus [1], 0.02 µM in the assay with Paracentrotus lividus [2] and 0.005 µM in the assay with Paracentrotus lividus [4]. Also, the GI50 is 0.014 µM in the assay with T47D, 0.009 µM in the assay on ZR-75-1 and 0.032 µM in assay [3].
